Source: patent US12534469B2 (CHILDREN'S HOSPITAL MEDICAL CENTER, priority 2020, dated 2026)
Where a chain is given by its changes, count along the chain named. pKd: −log10 of the molar value.

Key:
[1] = target: T1, FLT3 K663Q (Homo sapiens, UniProt P36888, K663Q); assay: DiscoverX KINOMEscan competition binding assay, FLT3 K663Q
T1 construct: purchased DiscoverX (KINOMEscan); host or cells: E. coli (T7 phage) or HEK-293
T1 sequence (P36888 27-993 K663Q): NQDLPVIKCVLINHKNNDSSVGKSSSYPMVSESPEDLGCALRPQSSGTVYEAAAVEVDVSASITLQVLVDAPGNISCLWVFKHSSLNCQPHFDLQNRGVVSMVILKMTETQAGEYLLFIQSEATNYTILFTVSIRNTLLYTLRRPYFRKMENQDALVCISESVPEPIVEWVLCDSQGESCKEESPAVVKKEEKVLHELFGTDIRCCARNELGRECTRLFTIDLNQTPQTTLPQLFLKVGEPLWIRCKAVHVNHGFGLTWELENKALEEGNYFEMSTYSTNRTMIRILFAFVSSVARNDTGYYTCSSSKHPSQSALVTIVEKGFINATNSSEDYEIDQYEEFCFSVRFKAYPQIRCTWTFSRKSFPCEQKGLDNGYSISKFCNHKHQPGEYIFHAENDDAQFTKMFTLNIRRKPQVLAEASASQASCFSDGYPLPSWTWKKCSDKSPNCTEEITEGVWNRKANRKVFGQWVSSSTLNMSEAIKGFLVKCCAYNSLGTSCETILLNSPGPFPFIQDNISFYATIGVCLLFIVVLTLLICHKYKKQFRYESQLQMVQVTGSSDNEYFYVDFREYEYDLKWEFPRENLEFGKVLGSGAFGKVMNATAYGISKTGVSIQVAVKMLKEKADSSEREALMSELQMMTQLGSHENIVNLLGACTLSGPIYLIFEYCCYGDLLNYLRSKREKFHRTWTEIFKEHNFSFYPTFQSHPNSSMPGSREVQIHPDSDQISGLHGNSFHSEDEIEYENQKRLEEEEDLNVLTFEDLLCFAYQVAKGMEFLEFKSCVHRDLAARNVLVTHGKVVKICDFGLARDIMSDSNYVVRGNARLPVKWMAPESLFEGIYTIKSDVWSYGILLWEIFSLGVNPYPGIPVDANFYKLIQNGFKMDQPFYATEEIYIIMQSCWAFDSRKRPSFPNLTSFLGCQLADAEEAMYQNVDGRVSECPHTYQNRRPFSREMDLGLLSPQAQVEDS
Source text: (§1) Kinase binding data were obtained for various exemplary compounds prepared according to Examples 1-25 using the DiscoverX KINOMEscan® active site-directed competition binding site-directed assay protocol described below. […] As a result, the data report thermodynamic interaction affinities (Kd values), rather than IC50 values that are dependent on ATP concentrations. The assay uses a DNA-tagged version of the protein kinase, and an immobilized ligand bound to a solid support. Compounds that directly or indirectly prevent kinase binding to the immobilized ligand reduce the amount of kinase captured on the solid support, which is detected using an ultra-sensitive qPCR method. Affinity constants reported from the assay have been reported to be independent of the immobilized ligand used that is coupled to the solid support (See supplemental information in Fabian, M. A. et. al., (2005) Nat. Biotechnol. 23, 329-336; Wodicka, L. M. et. al., (2010) Chem. Biol. 17, 1241-1249.)
(§2) Kinase-tagged T7 phage strains were prepared in an E. coli host derived from the BL21 strain. E. coli were grown to log-phase and infected with T7 phage and incubated with shaking at 32° C. until lysis. The lysates were centrifuged and filtered to remove cell debris. The remaining kinases were produced in HEK-293 cells and subsequently tagged with DNA for qPCR detection. […] The liganded beads were blocked with excess biotin and washed with blocking buffer (SeaBlock (Pierce), 1% BSA, 0.05% Tween 20, 1 mM DTT) to remove unbound ligand and to reduce non-specific binding. […] Test compounds were prepared as 111× stocks in 100% DMSO. Kds were determined using an 11-point 3-fold compound dilution series with three DMSO control points. […] The compounds were then diluted directly into the assays such that the final concentration of DMSO was 0.9%. All reactions were performed in polypropylene 384-well plates. Each was a final volume of 0.02 mL. […] The kinase concentration in the eluates was measured by qPCR.
(§3) Binding constants (Kds) were calculated with a standard dose-response curve using the Hill equation. […]

[2] = target: T2, FLT3 D835Y (Homo sapiens, UniProt P36888, D835Y); assay: DiscoverX KINOMEscan competition binding assay, FLT3 D835Y
T2 construct: purchased DiscoverX (KINOMEscan); host or cells: E. coli (T7 phage) or HEK-293
T2 sequence (P36888 27-993 D835Y): T1 sequence (P36888 27-993 K663Q) with Q637K, D809Y
Source text: as §1, §2, §3

COc1cc2ncc(-c3cccc(N[C@H]4CNCC[C@@H]4F)n3)n2nc1C1CC1 [Compound 102, 6-(6-cyclopropyl-7-methoxyimidazo[1,2-b]pyridazin-3-yl)-N-((3S,4S)-4-fluoropiperidin-3-yl)pyridin-2-amine] was tested. Which pKd [1] did it give?
The pKd was 9.43.

What about the pKd [2] of the same compound?
Its pKd is 9.80.

With COc1cc2ncc(-c3cccc(N[C@@H]4CCNC4)n3)n2nc1C1CC1 [Compound 97, (R)-6-(6-cyclopropyl-7-methoxyimidazo[1,2-b]pyridazin-3-yl)-N-(pyrrolidin-3-yl)pyridin-2-amine] as the compound, how does the pKd [1] read?
The pKd was 8.85.

And the pKd [2]?
Its pKd is 10.20.

With COc1cc2ncc(-c3cccc(N[C@H]4CNC[C@@H]4F)n3)n2nc1C1CC1 [Compound 96, 6-(6-cyclopropyl-7-methoxyimidazo[1,2-b]pyridazin-3-yl)-N-((3S,4S)-4-fluoropyrrolidin-3-yl)pyridin-2-amine] as the compound, how does the pKd [1] read?
The pKd was 9.22.

And the pKd [2]?
Its pKd is 9.34.
